Experiment [1] has as its system human osteosarcoma cell line SJSA-1. The experiment in a line: Inhibition of proliferation of human osteosarcoma cell line SJSA-1 (DAPI staining, In Cell Analyzer). To be noted: Homo sapiens, SJSA-1, 72 h, read-out: IC50 (nM), inhibitory activity on proliferation of human osteosarcoma cell line SJSA-1, SJSA-1, incubated 72 h.
The next experiment deals with T1, MDM2 (Homo sapiens, UniProt Q00987).
T1 construct: made in house
The experiment in a line: Inhibition test of MDM2-P53 (GST-MDM2, Biotin-P53, Anti-GST-Tb, SA-XL665). It counts as binding. The procedure, abridged: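 Compounds, serially diluted 5-fold (twelve concentrations), were shaken for 90 min at 25° C with a mix of GST-MDM2 (4 nM final), Biotin-P53, anti-GST-Tb and SA-XL665. Buffer: 1×PBS, 0.1% BSA, 5 mM DTT, 1 mM AEBSF; signal read on a microplate reader.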

T1 sequence (Q00987 whole entry): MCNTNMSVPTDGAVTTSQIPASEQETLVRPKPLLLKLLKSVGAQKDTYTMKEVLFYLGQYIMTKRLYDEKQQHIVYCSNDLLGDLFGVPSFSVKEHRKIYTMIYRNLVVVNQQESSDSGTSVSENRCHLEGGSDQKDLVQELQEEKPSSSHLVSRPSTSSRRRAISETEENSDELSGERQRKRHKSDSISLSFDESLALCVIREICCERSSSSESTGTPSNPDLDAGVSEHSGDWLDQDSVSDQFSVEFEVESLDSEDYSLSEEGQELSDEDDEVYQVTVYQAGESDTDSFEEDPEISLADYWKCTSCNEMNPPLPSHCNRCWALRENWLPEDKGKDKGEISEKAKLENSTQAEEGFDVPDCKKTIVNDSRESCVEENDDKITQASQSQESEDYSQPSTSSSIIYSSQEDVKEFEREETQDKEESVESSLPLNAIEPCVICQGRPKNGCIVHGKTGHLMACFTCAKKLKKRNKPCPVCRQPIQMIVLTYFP

On to `COc1ncc(-c2nc3c(n2C(C)C)[C@@]2(C(=O)Nc4cc(Cl)ccc42)N(c2cc(Cl)ccc2OC)C3=O)c(OC)n1` [Example S-17, (S)-6-chloro-5′-(5-chloro-2-methoxyphenyl)-2′-(2,4-dimethoxypyrimidin-5-yl)-3′-isopropyl-3′H-spiro[dihydroindole-3,4′-pyrrolo[3,4-d]imidazole]-2,6′(5′H)-dione], for which the IC50 in experiment [1] worked out at 201 nM; against MDM2, 3.75 nM.
In the case of `COc1ccncc1-c1nc2c(n1C(C)C)[C@@]1(C(=O)Nc3cc(Cl)ccc31)N(c1cc(Cl)ccc1C)C2=O` [Example S-18, (S)-6-chloro-5′-(5-chloro-2-methylphenyl)-3′-isopropyl-2′-(4-methoxypyridin-3-yl)-3′H-spiro[dihydroindole-3,4′-pyrrolo[3,4-d]imidazole]-2,6′(5′H)-dione], the IC50 was 13.9 nM in experiment [1] and 1.43 nM against MDM2.
With `COc1ccc(C(C)C)c(-c2nc3c(n2C(C)C)[C@@]2(C(=O)Nc4cc(Cl)ccc42)N(c2cc(Cl)ccc2C)C3=O)c1` [Example S-19, (S)-6-chloro-5′-(5-chloro-2-methylphenyl)-3′-isopropyl-2′-(2-isopropyl-5-methoxyphenyl)-3′H-spiro[dihydroindole-3,4′-pyrrolo[3,4-d]imidazole]-2,6′(5′H)-dione], the IC50 came out at 352 nM in experiment [1] and 34.6 nM on MDM2.
As for `COc1ncc(-c2nc3c(n2C(C)C)[C@@]2(C(=O)Nc4cc(Cl)ccc42)N(c2ccc(C)c(Cl)c2)C3=O)c(OC)n1` [Example S-20, (S)-6-chloro-5′-(3-chloro-4-methylphenyl)-2′-(2,4-dimethoxypyrimidin-5-yl)-3′-isopropyl-3′H-spiro[dihydroindole-3,4′-pyrrolo[3,4-d]imidazole]-2,6′(5′H)-dione], the IC50 in experiment [1] turned out to be 48.1 nM; against MDM2, 4.39 nM.
Turning to `CNC(=O)c1ccc(OC)c(-c2nc3c(n2C(C)C)[C@@]2(C(=O)Nc4cc(Cl)ccc42)N(c2cc(Cl)ccc2C)C3=O)c1` [Example S-21, (S)-3-(6-chloro-5′-(5-chloro-2-methylphenyl)-3′-isopropyl-2,6′-dioxo-5′,6′-dihydro-3′H-spiro[dihydroindole-3,4′-pyrrolo[3,4-d]imidazole]-2′-yl)-4-methoxy-N-methylbenzamide], the figures for the IC50 (in experiment [1]; at MDM2) were 62.2 nM and 1.34 nM, respectively.
Regarding `COc1ccc(C(=O)N(C)C)cc1-c1nc2c(n1C(C)C)[C@@]1(C(=O)Nc3cc(Cl)ccc31)N(c1cc(Cl)ccc1C)C2=O` [Example S-22, (S)-3-(6-chloro-5′-(5-chloro-2-methylphenyl)-3′-isopropyl-2,6′-dioxo-5′,6′-dihydro-3′H-spiro[dihydroindole-3,4′-pyrrolo[3,4-d]imidazole]-2′-yl)-4-methoxy-N,N-dimethylbenzamide], the IC50 came out at 7.46 nM in experiment [1] and 1.1 nM against MDM2.
Take `COc1cc(C)ccc1-c1nc2c(n1C(C)C)[C@@]1(C(=O)Nc3cc(Cl)ccc31)N(c1cc(Cl)ccc1C)C2=O` [Example S-24, (S)-6-chloro-5′-(5-chloro-2-methylphenyl)-3′-isopropyl-2′-(2-methoxy-4-methylphenyl)-3′H-spiro[dihydroindole-3,4′-pyrrolo[3,4-d]imidazole]-2,6′(5′H)-dione]: the figures for the IC50 (in experiment [1]; at MDM2) were 4.17 nM and 4.4 nM, respectively.
For `CNc1ccc(-c2nc3c(n2C(C)C)[C@@]2(C(=O)Nc4cc(Cl)ccc42)N(c2cc(Cl)ccc2C)C3=O)c(OC)c1` [Example S-25, (S)-6-chloro-5′-(5-chloro-2-methylphenyl)-3′-isopropyl-2′-(2-methoxy-4-(methylamine)phenyl)-3′H-spiro[dihydroindole-3,4′-pyrrolo[3,4-d]imidazole]-2,6′(5′H)-dione], the IC50 in experiment [1] was 8.83 nM; against MDM2, 2.52 nM.
Take `CCn1c(-c2cnc(OC)nc2OC)nc2c1[C@@]1(C(=O)Nc3cc(Cl)ccc31)N(c1cc(Cl)ccc1C)C2=O` [Example S-26, (S)-6-chloro-5′-(5-chloro-2-methylphenyl)-2′-(2,4-dimethoxypyrimidin-5-yl)-3′-ethyl-3′H-spiro[dihydroindole-3,4′-pyrrolo[3,4-d]imidazole]-2,6′(5′H)-dione]: the IC50 was found to be 22.2 nM in experiment [1] and 2.37 nM at MDM2.
For `COc1ncncc1-c1nc2c(n1C(C)C)[C@@]1(C(=O)Nc3cc(Cl)ccc31)N(c1cc(Cl)ccc1C)C2=O` [Example S-27, (S)-6-chloro-5′-(5-chloro-2-methylphenyl)-3′-isopropyl-2′-(4-methoxypyrimidin-5-yl)-3′H-spiro[dihydroindole-3,4′-pyrrolo[3,4-d]imidazole]-2,6′(5′H)-dione], in that order: 119 nM and 3.45 nM.
As for `COc1ncc(-c2nc3c(n2C2CC2)[C@@]2(C(=O)Nc4cc(Cl)ccc42)N(c2cc(Cl)ccc2C)C3=O)c(OC)n1` [Example S-28, (S)-6-chloro-5′-(5-chloro-2-methylphenyl)-3′-cyclopropane-2′-(2,4-dimethoxypyrimidin-5-yl)-3′H-spiro[dihydroindole-3,4′-pyrrolo[3,4-d]imidazole]-2,6′(5′H)-dione], the IC50 in experiment [1] amounted to 1290 nM; on MDM2, 54.3 nM.
In the case of `COc1ccc(C(N)=O)cc1-c1nc2c(n1C(C)C)[C@@]1(C(=O)Nc3cc(Cl)ccc31)N(c1cc(Cl)ccc1C)C2=O` [Example S-29, (S)-3-(6-chloro-5′-(5-chloro-2-methylphenyl)-3′-isopropyl-2,6′-dioxo-5′,6′-dihydro-3′H-spiro[dihydroindole-3,4′-pyrrolo[3,4-d]imidazole]-2′-yl)-4-methoxybenzamide], the IC50 in experiment [1] came to 196 nM; at MDM2, 1.01 nM.
Turning to `Cc1ccc(Cl)cc1N1C(=O)c2nc(-c3ccccc3OC(F)F)n(C(C)C)c2[C@@]12C(=O)Nc1cc(Cl)ccc12` [Example S-30, (S)-6-chloro-5′-(5-chloro-2-methylphenyl)-2′-(2-(difluoromethoxy)phenyl)-3′-isopropyl-3′H-spiro[dihydroindole-3,4′-pyrrolo[3,4-d]imidazole]-2,6′(5′H)-dione], the IC50 in experiment [1] was 58.1 nM; against MDM2, 3.31 nM.
As to `Cc1ccc(Cl)cc1N1C(=O)c2nc(-c3ccccc3OC(F)(F)F)n(C(C)C)c2[C@@]12C(=O)Nc1cc(Cl)ccc12` [Example S-31, (S)-6-chloro-5′-(5-chloro-2-methylphenyl)-3′-isopropyl-2′-(2-(trifluoromethoxy)phenyl)-3′H-spiro[dihydroindole-3,4′-pyrrolo[3,4-d]imidazole]-2,6′(5′H)-dione], the IC50 in experiment [1] was found to be 1580 nM; on MDM2 it was 60.1 nM.
For the molecule `CCc1ccc(-c2nc3c(n2C(C)C)[C@@]2(C(=O)Nc4cc(Cl)ccc42)N(c2cc(Cl)ccc2C)C3=O)c(OC)c1` [Example S-33, (S)-6-chloro-5′-(5-chloro-2-methylphenyl)-2′-(4-ethyl-2-methoxyphenyl)-3′-isopropyl-3′H-spiro[dihydroindole-3,4′-pyrrolo[3,4-d]imidazole]-2,6′(5′H)-dione], the IC50 amounted to 9.7 nM in experiment [1] and 2.47 nM against MDM2.
Regarding `Cc1ccc(Cl)cc1N1C(=O)c2nc(-c3ccccc3OC(C)C)n(C(C)C)c2[C@@]12C(=O)Nc1cc(Cl)ccc12` [Example S-34, (S)-6-chloro-5′-(5-chloro-2-methylphenyl)-2′-(2-isopropoxyphenyl)-3′-isopropyl-3′H-spiro[dihydroindole-3,4′-pyrrolo[3,4-d]imidazole]-2,6′(5′H)-dione], the IC50 in experiment [1] came out at 619 nM; against MDM2, 139 nM.

Source of the values: patent US11339171B2, “MDM2 inhibitors” (Gan & Lee Pharmaceuticals, priority 2017, dated 2022).
